Results: patent US20260223838A1, “ANTIMICROBIAL MASTERBATCHES AND POWDERS COMPRISING A SYNERGISTIC BLEND OF COMPONENTS” (priority 2023, published 2026)

System: E. coli (ATCC 8739)
Assay: Zone of Inhibition (ZOI) of pressed powder pellets
Conditions: against E. coli after 24 h incubation at 37° C.
Protocol: Zone of Inhibition (ZOI). […] The cultures were streaked on Luria Agar (LB) plates and incubated overnight at 37° C. […] 50 μL of this stock suspension was spread homogeneously on a trypticase soy agar (TSA) plate (diameter 10 cm).

| Molecule | diameter of the ZOI |
| --- | --- |
| Zinc borate | No ZOI |
| [O]=[Mo](=[O])=[O] [molybdenum oxide, molybdenum (VI) oxide] | 19 mm |
| basic copper (II) carbonate [BCC] | 12 mm |
